We go through two molecules from patent US20180318275A1, “COMBINATION THERAPY USING PI3K INHIBITOR AND MDM2 INHIBITOR” (Novartis AG, priority 2015, published 2018).

The test relates to 5 TP53 wild type colorectal cancer cell lines. As to the kind of experiment: Cell proliferation over the cell line panel, Example 3. To be noted: Example 3, panel of 5 lines, 13 nM-10 μM. The class given is cell-based. On the procedure:
To test the effect of the combination of COMPOUND A, COMPOUND B, and COMPOUND C on cell proliferation cells were plated in black 384-well microplates with clear bottom (Matrix/Thermo Scientific, Catalog number 4332) in 50 μL media per well at cell densities between 500 and 1250 cells/well (Table 1 above) and allowed to incubate at 37 degrees, 5% CO2 for 24 h. After 24 h one 384-well plate per cell line was prepared for cell counting by microscopy (see below) without receiving treatment (=‘baseline’). The other cell plates were treated by transferring 25 nL of the 2000× compound from drug master plates using an ATS acoustic liquid dispenser (ECD Biosystems) and resulting in a final 1× concentration. COMPOUND A was used over a final concentration range of 13 nM-10 μM, COMPOUND B was used over a final concentration range of 13 nM-10 μM, and COMPOUND C was used over a final concentration range of 13 nM-10 μM (7 1:3 dilution steps). In order to assess the effect of the triple combination all individual COMPOUNDS (A, B, C), all three pair wise combinations (A+B, A+C, B+C), and the triple combination (A+B+C) were tested in the same experiment. […] Caspase 3/7 induction was measured as a proxy for apoptosis induced by the treatments. Cells were treated for 72 h to 96 h depending on their doubling time (Table 1), and Caspase 3/7 activation was measured every 24 h by microscopy using an InCell Analyzer 2000 (GE Healthcare) equipped with a 4× objective and FITC excitation/emission filters. […] All cells per well/treatment were captured in a single image by fluorescence microscopy using an InCell Analyzer 2000 (GE Healthcare) equipped with a 4× objective and DAPI excitation/emission filters.
Images were analyzed after adapting previously described methods (Horn, Sandmann et al. 2011, Nat. Methods 8(4): 341-346) and using the Bioconductor package EBImage in R (Pau, Fuchs et al. 2010, Bioinformatics 26(7):979-981). Objects in both channels, DAPI (for Hoechst/DNA) and FITC (for Caspase 3/7), were segmented separately by adaptive thresholding and counted. […]

In the case of `Cc1nc(NC(=O)N2CCC[C@H]2C(N)=O)sc1-c1ccnc(C(C)(C)C(F)(F)F)c1` [COMPOUND A, (S)-Pyrrolidine-1,2-dicarboxylic acid 2-amide 1-({4-methyl-5-[2-(2,2,2-trifluoro-1,1-dimethyl-ethyl)-pyridin-4-yl]-thiazol-2-yl}-amide)], the “Single agent growth inhibition, in words” value is “inhibited the growth of 2 of the cell lines with micromolar IC50 values, and was active only at the highest dose (10 μM) in the 3 other lines”.
As for `COc1cc2c(cc1OC(C)C)[C@H](c1ccc(Cl)cc1)N(c1ccc(N(C)C[C@H]3CC[C@H](N4CCN(C)C(=O)C4)CC3)cc1)C(=O)C2` [COMPOUND B, (S)-1-(4-Chloro-phenyl)-7-isopropoxy-6-methoxy-2-(4-{methyl-[4-(4-methyl-3-oxo-piperazin-1-yl)-trans-cyclohexylmethyl]-amino}-phenyl)-1,4-dihydro-2H-isoquinolin-3-one], the “Single agent growth inhibition, in words” value is “inhibited the growth of cell lines with sub-micromolar to micromolar IC50 values”.
